Reference: PMC8151276, “An Integrated Approach toward NanoBRET Tracers for Analysis of GPCR Ligand Engagement” (Molecules, 2021)

Legend:
Format in all cases: binding
AVPR2 = target: T1, AVPR2 (Homo sapiens, UniProt P30518); test: NanoBRET screen HiBiT-AVPR2 in HEK293
T1 construct: purchased Promega (in-house HiBiT-GPCR construct library, NanoBRET)
Protocol: (§1) Each tracer candidate was screened across the entire library of HiBiT-GPCR constructs using NanoBRET as the detection modality. As depicted in Figure 4A, the specificity of interactions was evaluated through decrease in BRET due to competitive displacement of a bound tracer by excess parental compound. Each tracer was analyzed for binding to each HiBiT-GPCR fusion in the absence and in the presence of competing parental compound. Briefly, HEK293 cells were transfected with HiBiT-GPCR constructs diluted into promoterless DNA to reduce expression and maximize translocation to the cell surface. Each tracer candidate was then screened at concentrations of 1 μM and 0.1 μM across cells expressing these fusions. Cells were treated for 1.5 h with tracer either alone or in the presence of 20 μM competing parental compound (i.e., control). BRET was measured upon addition of purified LgBiT and subsequent complementation with HiBiT genetically fused to a GPCR. The specificity of interactions was assessed through a decrease in BRET signal due to competitive displacement of the bound tracer. To further gauge the robustness of these interactions, the fold response over the control (i.e., BRETtracer/BRETcontrol) was calculated. We chose a 1.5-fold response, which translates to ≥7-fold signal over noise as the minimal threshold required to score an interaction as positive. […]. Below we highlight the screening results obtained for our exemplary fluorescent tracers based on Clozapine, Amitriptyline and AZD1283.
(§2) HiBiT-GPCR DNA constructs were diluted in 10 mM Tris pH 8 to a final concentration of 0.01 μg/μL, arrayed in 96-well plates and stored at −20 °C. For transfection, HEK293 cells were suspended in Opti-MEM (without phenol red) supplemented with 2% fetal bovine serum (Seradigm) and 100 units/mL penicillin–streptomycin (Gibco) at a final concentration of 220,000 cells/mL and dispensed into white 96-well plates at 90 μL/well. Subsequent transfections and screens were carried using an Agilent Bravo Automated Liquid Handling Platform. First, the 96-well HiBiT DNA arrays were diluted 25-fold in Opti-MEM (without serum or phenol red) to a final concentration of 0.0004 μg/μL and 20 μL of the diluted DNAs were transferred into new 96-well plates. Next, promoterless carrier DNA (1 μg/μL) was diluted 25-fold (0.04 μg/μL) and then dispensed into the diluted arrays at 20 μL/well. Following brief mixing, Viafect transfection reagent (Promega) diluted 16-fold into Opti-MEM was dispensed into the plates at 40 μL/well. After mixing by pipetting, plates were incubated for 10 min on the pipetting station deck. The DNA-transfection reagent complexes were then added to plates containing cells. To facilitate the screen, 10 μL of DNA-transfection reagent complexes were added in duplicates to the top 4 and bottom 4 rows, resulting in two identical 48-well arrays per plate. Plates with transfected cells were incubated for 18–20 h at 37 °C/5% CO2. A screen of each tracer across the entire library using two different concentrations requires duplicate plates of transfected cells. Depending on the number of tracers being screened, transfections can be scaled up using the same ratios. The next day, for each tracer, four 20× screening solutions in tracer dilution buffer (Promega) were prepared: two duplicates at final concentration of 20 μM and two duplicates at a final concentration of 2 μM. A competing unmodified compound was added to one of each duplicate at a final concentration of 400 μM. The four resulting solutions were diluted 4-fold in Opti-MEM without serum or phenol red to generate 5× solutions (5 µM and 0.5 µM tracer +/− 100 μM competing compound). To screen the library, a BioTek MultiFlo FX liquid dispenser was used to dispense 22.5 µL of tracer solution to the top 4 rows and 22.5 µL tracer + competing compound solution to the 4 bottom rows. Plates were briefly mixed on an orbital shaker and incubated for 1.5 h at room temperature. […]

C5AR2 = target: T2, C5AR2 (Homo sapiens, UniProt Q9P296); test: NanoBRET screen HiBiT-C5AR2 in HEK293
T2 construct: purchased Promega (in-house HiBiT-GPCR construct library, NanoBRET)
T2 sequence (Q9P296 whole entry): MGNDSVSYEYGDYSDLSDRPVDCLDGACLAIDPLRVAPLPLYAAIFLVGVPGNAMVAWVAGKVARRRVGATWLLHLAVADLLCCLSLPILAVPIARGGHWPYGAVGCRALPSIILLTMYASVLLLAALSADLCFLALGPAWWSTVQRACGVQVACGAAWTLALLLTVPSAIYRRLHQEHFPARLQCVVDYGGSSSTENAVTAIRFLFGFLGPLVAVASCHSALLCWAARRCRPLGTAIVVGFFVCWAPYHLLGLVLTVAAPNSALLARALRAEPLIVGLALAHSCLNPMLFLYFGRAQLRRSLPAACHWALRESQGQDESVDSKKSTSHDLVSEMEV
Protocol: as §1, §2

CXCR5 = target: T3, CXCR5 (Homo sapiens, UniProt P32302); test: NanoBRET screen HiBiT-CXCR5 in HEK293
T3 construct: purchased Promega (in-house HiBiT-GPCR construct library, NanoBRET)
T3 sequence (P32302 1-372): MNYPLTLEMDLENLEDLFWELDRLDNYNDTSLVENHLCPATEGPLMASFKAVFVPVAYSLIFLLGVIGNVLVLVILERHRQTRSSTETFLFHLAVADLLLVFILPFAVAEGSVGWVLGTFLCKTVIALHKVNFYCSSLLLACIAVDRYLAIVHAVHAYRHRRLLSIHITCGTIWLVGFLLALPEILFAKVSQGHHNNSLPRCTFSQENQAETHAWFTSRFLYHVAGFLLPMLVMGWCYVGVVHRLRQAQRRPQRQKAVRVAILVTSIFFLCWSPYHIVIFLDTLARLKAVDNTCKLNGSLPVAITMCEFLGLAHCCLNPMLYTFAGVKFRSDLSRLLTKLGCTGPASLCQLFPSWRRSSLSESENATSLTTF
Protocol: as §1, §2

AGTR1 = target: T4, AGTR1 (Homo sapiens, UniProt P30556); test: NanoBRET screen HiBiT-AGTR1 in HEK293
T4 construct: purchased Promega (in-house HiBiT-GPCR construct library, NanoBRET)
T4 sequence (P30556 1-359): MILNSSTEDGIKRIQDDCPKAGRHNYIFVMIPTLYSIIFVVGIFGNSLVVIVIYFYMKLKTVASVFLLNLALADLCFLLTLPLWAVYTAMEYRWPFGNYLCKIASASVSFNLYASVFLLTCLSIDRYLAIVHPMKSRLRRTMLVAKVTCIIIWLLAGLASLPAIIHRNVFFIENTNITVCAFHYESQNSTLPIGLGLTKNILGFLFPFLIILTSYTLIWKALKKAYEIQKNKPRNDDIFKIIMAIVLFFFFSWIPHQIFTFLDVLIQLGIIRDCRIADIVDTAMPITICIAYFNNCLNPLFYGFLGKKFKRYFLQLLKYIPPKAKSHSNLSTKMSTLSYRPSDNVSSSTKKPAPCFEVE
Protocol: as §1, §2

CNR1 = target: T5, CNR1 (Homo sapiens, UniProt P21554); test: NanoBRET screen HiBiT-CNR1 in HEK293
T5 construct: purchased Promega (in-house HiBiT-GPCR construct library, NanoBRET)
T5 sequence (P21554 whole entry): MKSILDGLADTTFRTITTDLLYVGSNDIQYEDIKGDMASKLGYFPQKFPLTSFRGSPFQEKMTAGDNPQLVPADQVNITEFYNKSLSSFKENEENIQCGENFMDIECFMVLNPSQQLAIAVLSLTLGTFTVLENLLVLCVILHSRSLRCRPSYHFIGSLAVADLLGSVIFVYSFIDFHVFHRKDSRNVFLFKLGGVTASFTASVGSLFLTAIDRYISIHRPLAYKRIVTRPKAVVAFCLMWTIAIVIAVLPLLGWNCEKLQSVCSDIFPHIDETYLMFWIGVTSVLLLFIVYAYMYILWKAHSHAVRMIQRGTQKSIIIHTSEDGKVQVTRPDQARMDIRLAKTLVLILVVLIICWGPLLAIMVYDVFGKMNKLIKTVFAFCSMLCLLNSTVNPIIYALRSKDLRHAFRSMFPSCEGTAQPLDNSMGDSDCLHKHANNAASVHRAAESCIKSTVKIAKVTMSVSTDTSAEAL
Protocol: as §1, §2

GHSR = target: T6, GHSR (Homo sapiens, UniProt Q92847); test: NanoBRET screen HiBiT-GHSR in HEK293
T6 construct: purchased Promega (in-house HiBiT-GPCR construct library, NanoBRET)
T6 sequence (Q92847 whole entry): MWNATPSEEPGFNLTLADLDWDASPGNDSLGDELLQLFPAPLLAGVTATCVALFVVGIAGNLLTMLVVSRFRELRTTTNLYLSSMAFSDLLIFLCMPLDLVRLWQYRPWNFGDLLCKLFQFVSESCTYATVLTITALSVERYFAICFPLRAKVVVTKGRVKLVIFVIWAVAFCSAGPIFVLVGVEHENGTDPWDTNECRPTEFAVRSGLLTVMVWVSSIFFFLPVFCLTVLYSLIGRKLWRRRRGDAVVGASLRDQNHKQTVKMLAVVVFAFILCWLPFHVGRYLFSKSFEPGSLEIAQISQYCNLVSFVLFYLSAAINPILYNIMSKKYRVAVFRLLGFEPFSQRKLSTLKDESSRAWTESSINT
Protocol: as §1, §2

T1 sequence (P30518 whole entry): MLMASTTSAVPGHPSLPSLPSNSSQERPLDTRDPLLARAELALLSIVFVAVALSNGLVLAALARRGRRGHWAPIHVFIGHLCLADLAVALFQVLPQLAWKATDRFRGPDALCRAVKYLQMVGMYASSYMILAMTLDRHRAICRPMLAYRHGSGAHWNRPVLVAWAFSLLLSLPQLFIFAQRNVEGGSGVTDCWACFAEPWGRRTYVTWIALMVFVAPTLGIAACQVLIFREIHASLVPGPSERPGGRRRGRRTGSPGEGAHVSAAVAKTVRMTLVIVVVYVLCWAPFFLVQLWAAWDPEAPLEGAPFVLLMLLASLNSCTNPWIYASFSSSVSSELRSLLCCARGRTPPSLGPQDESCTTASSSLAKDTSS

| NanoBRET Fold Response (AVPR2; 0.1μM tracer) | NanoBRET Fold Response (AVPR2; 1μM tracer) | NanoBRET Fold Response (C5AR2; 0.1μM tracer) | NanoBRET Fold Response (C5AR2; 1μM tracer) | NanoBRET Fold Response (CXCR5; 0.1μM tracer) | NanoBRET Fold Response (CXCR5; 1μM tracer) | NanoBRET Fold Response (AGTR1; 0.1μM tracer) | NanoBRET Fold Response (AGTR1; 1μM tracer) | NanoBRET Fold Response (CNR1; 0.1μM tracer) | NanoBRET Fold Response (CNR1; 1μM tracer) | NanoBRET Fold Response (GHSR; 0.1μM tracer) | NanoBRET Fold Response (GHSR; 1μM tracer) | SMILES | NanoBRET Fold Response (AVPR2; AVPR2, 0.1μM tracer) | NanoBRET Fold Response (AVPR2; AVPR2, 1μM tracer) | NanoBRET Fold Response (C5AR2; C5AR2, 0.1μM tracer) | NanoBRET Fold Response (C5AR2; C5AR2, 1μM tracer) | NanoBRET Fold Response (CXCR5; CXCR5, 0.1μM tracer) | NanoBRET Fold Response (CXCR5; CXCR5, 1μM tracer) | NanoBRET Fold Response (AGTR1; AGTR1, 0.1μM tracer) | NanoBRET Fold Response (AGTR1; AGTR1, 1μM tracer) | also measured |
| --- | --- | --- | --- | --- | --- | --- | --- | --- | --- | --- | --- | --- | --- | --- | --- | --- | --- | --- | --- | --- | --- |
| 0.91 | 1.01 | 0.90 | 0.93 | 0.93 | 1.19 | 0.78 | 1.07 | 1.01 | 0.95 | 0.93 | 1.03 | COc1ccc2c(n1)c(CCNC(C)=O)cn2CCNC(=O)CCc1ccc2n1[B-](F)(F)[N+]1=C(c3ccc[nH]3)C=CC1=C2 [Azamelatonin-1-NB590] | – | – | – | – | – | – | – | – | – |
| 0.84 | 0.87 | 1.13 | 0.89 | 1.36 | 0.90 | 0.91 | 0.94 | 0.99 | 1.02 | 0.89 | 0.90 | COc1ccc2[nH]c(-c3ccc(CNC(=O)CCOCCOCCOCCOCCNC(=O)CCc4ccc5n4[B-](F)(F)[N+]4=C(c6ccc[nH]6)C=CC4=C5)cc3)c(CCNC(C)=O)c2n1 [AzomelatoninICO9-2-NB590] | – | – | – | – | – | – | – | – | – |

Second part, the compound before the results:

| SMILES | NanoBRET Fold Response (AVPR2; 0.1μM tracer) | NanoBRET Fold Response (AVPR2; 1μM tracer) | NanoBRET Fold Response (C5AR2; 0.1μM tracer) | NanoBRET Fold Response (C5AR2; 1μM tracer) | NanoBRET Fold Response (CXCR5; 0.1μM tracer) | NanoBRET Fold Response (CXCR5; 1μM tracer) | NanoBRET Fold Response (AGTR1; 0.1μM tracer) | NanoBRET Fold Response (AGTR1; 1μM tracer) | NanoBRET Fold Response (CNR1; 0.1μM tracer) | NanoBRET Fold Response (CNR1; 1μM tracer) | NanoBRET Fold Response (GHSR; 0.1μM tracer) | NanoBRET Fold Response (GHSR; 1μM tracer) | NanoBRET Fold Response (AVPR2; AVPR2, 0.1μM tracer) | NanoBRET Fold Response (AVPR2; AVPR2, 1μM tracer) | NanoBRET Fold Response (C5AR2; C5AR2, 0.1μM tracer) | NanoBRET Fold Response (C5AR2; C5AR2, 1μM tracer) | NanoBRET Fold Response (CXCR5; CXCR5, 0.1μM tracer) | NanoBRET Fold Response (CXCR5; CXCR5, 1μM tracer) | NanoBRET Fold Response (AGTR1; AGTR1, 0.1μM tracer) | NanoBRET Fold Response (AGTR1; AGTR1, 1μM tracer) | also measured |
| --- | --- | --- | --- | --- | --- | --- | --- | --- | --- | --- | --- | --- | --- | --- | --- | --- | --- | --- | --- | --- | --- |
| CN(CCC=C1c2ccccc2CCc2ccccc21)C(=O)CCOCCOCCOCCOCCNC(=O)CCc1ccc2n1[B-](F)(F)[N+]1=C(c3ccc[nH]3)C=CC1=C2 [Amitriptyline-e-2-NB590] | – | – | – | – | – | – | – | – | – | – | – | – | – | – | – | – | – | – | – | – | NanoBRET Fold Response (AVPR2; tracer at 1μM): 0.99; NanoBRET Fold Response (C5AR2; tracer at 1μM): 1.01; NanoBRET Fold Response (CXCR5; tracer at 1μM): 0.98; NanoBRET Fold Response (AGTR1; tracer at 1μM): 1.02 |
| O=C(CCOCCOCCOCCOCCNC(=O)CCc1ccc2n1[B-](F)(F)[N+]1=C(c3ccc[nH]3)C=CC1=C2)NCCCN1CCN(C2=Nc3cc(Cl)ccc3Nc3ccccc32)CC1 [Clozapine-a-2-NB590] | – | – | – | – | – | – | – | – | – | – | – | – | 1.03 | 0.95 | 0.93 | 1.21 | 1.06 | 1.01 | 0.96 | 1.05 | NanoBRET Fold Response (CNR1; CNR1, 0.1μM tracer): 1.02; NanoBRET Fold Response (CNR1; CNR1, 1μM tracer): 1.04; NanoBRET Fold Response (GHSR; GHSR, 0.1μM tracer): 0.95; NanoBRET Fold Response (GHSR; GHSR, 1μM tracer): 1.06 |
| CN1CCN(C2=Nc3cc(Cl)ccc3Nc3ccc(CNC(=O)CCOCCOCCOCCOCCNC(=O)CCc4ccc5n4[B-](F)(F)[N+]4=C(c6ccc[nH]6)C=CC4=C5)cc32)CC1 [Clozapine-b-2-NB590] | – | – | – | – | – | – | – | – | – | – | – | – | 1.05 | 0.95 | 0.99 | 1.01 | 0.95 | 1.02 | 1.01 | 1.06 | NanoBRET Fold Response (CNR1; CNR1, 0.1μM tracer): 1.01; NanoBRET Fold Response (CNR1; CNR1, 1μM tracer): 1.03; NanoBRET Fold Response (GHSR; GHSR, 0.1μM tracer): 1.01; NanoBRET Fold Response (GHSR; GHSR, 1μM tracer): 1.03 |
